Measured values as given in patent publication US6562993B1, “Preservative compounds” (ISP Investments Inc., priority 2002, dated 2003).

Experiments:
Experiment in all cases: Minimum Inhibitory Concentration (MIC) Test, serial dilution
Assay type in all cases: cell-based
[1] = test system: Aspergillus niger ATCC 16404; settings: A. niger; weight percent of active ingredients; propylene glycol solvent
Experimental: (§1) The Minimum Inhibitory Concentration (MIC) Test is an in vitro serial dilution procedure to assess antimicrobial activity. The MIC of a substance is the minimum concentration that will inhibit the growth of test organisms. Two species each of bacteria and fungi were included in the evaluation.
(§2) Cultiloop™ transfer cultures were used, and the bacteria were cultured on Brain Heart Infusion agar for 24 hours at 37° C. A saline suspension of each bacterial species was prepared and standardized on the spectrophotometer to the organism inoculum concentration. The yeast culture (Candida) was grown on a slant of Saboraud Dextrose agar for 48 hours at 27° C., and the slant was then washed with saline to prepare the inoculum. The mold culture (Aspergillus) was incubated for 7-10 days at 27° C. until sporulation occurred. The mold inoculum was prepared by washing the mature slant and harvesting the spores after filtration through sterile gauze.
(§3) The results are summarized in the Table below, where the concentrations refer to the weight percents of active ingredients.

[2] = test system: Burkholderia cepacia ATCC 25416; settings: B. cepacia; weight percent of active ingredients; propylene glycol solvent
Experimental: as §1, §2, §3

[3] = test system: Candida albicans ATCC 10231; settings: C. albicans; weight percent of active ingredients; propylene glycol solvent
Experimental: as §1, §2, §3

[4] = test system: Staphylococcus aureus ATCC 6538; settings: S. aureus; weight percent of active ingredients; propylene glycol solvent
Experimental: as §1, §2, §3

Row | SMILES | MIC Cidal [1] [%] | MIC Static [1] [%] | MIC Cidal [2] [%] | MIC Static [2] [%] | MIC Cidal [3] [%] | MIC Static [3] [%] | MIC Cidal [4] [%] | MIC Static [4] [%]
1 | N#CCCC(Br)(C#N)CBr (stereo not shown) [Merguard ®, 1,2-dibromo-2,4-dicyanobutane] | <0.05 | <0.05 | <0.05 | <0.05 | <0.05 | <0.05 | <0.05 | <0.05
2 | CC(Br)(C#N)CCC#N (stereo not shown) [Compound II, 2-bromo-2-methylglutaronitrile] | 0.10 | <0.05 | <0.05 | <0.05 | <0.05 | <0.05 | 0.10 | <0.05
